The test system of one assay is H2O2-induced apoptosis. The experiment in a line: H2O2-induced apoptosis defined by the TUNEL assay. Conditions: FIG. 14. It counts as cell-based. As to the method:
Slices were first incubated with anti-αSMA overnight at 4° C. After the TUNEL protocol, slides were mounted in DAPI-containing media (Vector Labs) and cells were visualized on a Zeiss fluorescent microscope. TUNEL-positive cells were counted per field in 15-20 fields and normalized to total cells from the DAPI stain.
FIGS. 12A-D show chemical structure of the NAMPT inhibitor, FK-866 (FIG. 12A) which is divided into three regions (FIG. 12B) and varied by replacing with N-heterocycles to generate novel FK866 analogs: MS-1-82 (FIG. 12C), Rari049 (FIG. 12D), Alpii135 (FIG. 12E); FIG. 13 is a bar graph showing normalized NAMPT activity in the present of FK866 and FK analogues MS-1-82, Rari049, Alpii135 at […] concentrations; FIG. 14 is a bar graph showing the role of Nampt enzymatic activity in H2O2-induced apoptosis defined by the TUNEL assay.

The next assay has as its system IPF fibroblasts. Nature of the assay: staurosporine-induced apoptosis in IPF lung myofibroblasts. Particulars: IPF fibroblasts pre-treated with FK-866; FIG. 11B. It is filed as cell-based, human. The text has this: Human lung tissue and fibroblasts were isolated from the lungs of patients with a confirmed diagnosis of IPF as previously described (18), under an approved protocol by the Institutional Review Board. Fibroblasts were isolated and evaluated for apoptosis, senescence, and ROS levels by immunofluorescence, immunohistochemistry, and/or biochemical assays.
Cells were lysed using caspase lysis buffer and analyzed for activated caspase 3 using the BioVision Caspase 3 Fluorometric Assay Kit according to the manufacturer's instructions (BioVision, Inc, Milpitas Calif.).
Nampt contributes to mouse and human IPF fibroblasts resistance to apoptosis. Staurosporine (300 nM, 8 h)-induced expression of apoptotic markers, cleaved caspase 3 and PARP (FIG. 11A) was increased in lung fibroblasts isolated from Nampt+/− compared with WT mice.

Assay [1] in a line: MCT-PH preventive therapy study. Conditions: preliminary studies. It is filed as in vivo. An excerpt:
To generate functional analogs of the NAMPT inhibitor FK-866, the FK-866 structure was divided into three regions and varied by replacing with N-heterocycles to generate FK866 analogs.

Regarding `O=C(/C=C/c1cccnc1)NCCCCC1CCN(C(=O)c2ccccc2)CC1` [FK-866, (E)-N-[4-(1-Benzoylpiperidin-4-yl)butyl]-3-pyridin-3-ylprop-2-enamide], the H2O2-induced apoptosis result with H2O2-induced apoptosis is reported as “blocks H2O2-induced apoptosis”. Moreover, the staurosporine-induced apoptosis result in the assay with IPF fibroblasts was “restored apoptosis”.

For the compound `O=C(/C=C/c1cccnc1)NCCCCCCn1c(-c2ccccc2)cc2ccccc21` [Rari049], in assay [1], the “hyper-trophy-ratio of RV and LV plus septal-S weight (RVH-RV)” value is listed as “reducing”; the “right ventricular systolic pressure (RVSP)” value was “reducing”.

The record behind these values is patent US10993936B2, “Method of treating one or more symptoms of pulmonary fibrosis by administering inhibitors of nicotinamide phosphoribotransferase” (Arizona Board of Regents on Behalf of the University of …, priority 2017, dated 2021).
